Reference: patent publication US11937603B2, “Maleimide derivatives having herbicidal activity, agronomic compositions of the maleimide derivatives, and uses thereof” (Gowan Company, LLC, priority 2018, dated 2024)

Columns and labels:
Assay type in all cases: in vivo
[1] = system: Sida spinosa; assay: Herbicidal activity in post-emergence; conditions: dose of 250 g/ha, post-emergence (BBCH 11-12), twenty-one days after treatment, vs untreated control
Experimental: (§1) The herbicidal activity of the compounds of the invention in post-emergence was evaluated according to the following operating modes.
(§2) The plant species of interest (weeds or crops) were sown in pots with a diameter greater than 10 cm, a height of 10 cm and containing sandy soil. Six pots were used for each plant species.
(§3) Water was added to each pot in an amount suitable for the germination of the seeds. The pots were then divided into two groups each containing 3 pots for each weed or crop.
(§4) Upon reaching the phenological stage of the plants with 1-2 extended leaves (BBCH 11-12), the first group of pots was treated with the same hydroacetone dispersion containing 20% acetone by volume, the compound under evaluation at the desired dose and Tween 20 at 0.5% by weight, indicated in Example 6.
(§5) The second group was treated only with a hydroacetone solution containing acetone at 20% by volume and Tween 20 at 0.5% by weight, and was used as a comparison term (control).
(§6) All the pots were kept under observation in a conditioned environment (greenhouse) under the following environmental conditions: • temperature: 24° C. during the day and 18° C. at night • relative humidity: >50% • photoperiod: 16 hours; • light intensity: 12,000 lux.
(§7) The pots were uniformly watered as needed, so as to ensure a degree of humidity sufficient for a good development of the plants.
(§8) Twenty-one days after treatment, the herbicidal activity was evaluated according to the percentage of damage (scale 0-100%) found on the treated plants compared to the untreated plants (control): • 0%=No effect on the plants • 100%=Complete death of the plants
(§9) Nrs. 11,4,2,3 compared with a hydroacetone dispersion containing the Compound CR1 described in EP0297378.

[2] = system: Digitaria sanguinalis; assay: Herbicidal activity in post-emergence; conditions: dose of 250 g/ha, post-emergence (BBCH 11-12), twenty-one days after treatment, vs untreated control
Experimental: as §1, §2, §3, §4, §5, §6, §7, §8, §9

[3] = system: Echinochloa crus-galli; assay: Herbicidal activity in post-emergence; conditions: dose of 250 g/ha, post-emergence (BBCH 11-12), twenty-one days after treatment, vs untreated control
Experimental: as §1, §2, §3, §4, §5, §6, §7, §8, §9

[4] = system: Setaria viridis; assay: Herbicidal activity in pre-emergence; conditions: dose of 250 g/ha, twenty-one days after treatment, vs untreated control
Experimental: (§10) The herbicidal activity of the compounds of the invention in pre-emergence was evaluated according to the following operating modes.
(§11) The plant species of interest (weeds or crops) were sown in pots with a diameter of 10 cm, a height of 10 cm and containing sandy soil. Six pots of each plant species were used.
as §3
(§12) One day after sowing, the first group of pots was treated with a dispersion having the following composition:
(§13) The dispersion was prepared by adding a desired dose of a compound of the present invention to a hydroacetone solution containing acetone at 20% by volume and Tween 20 at 0.5% by weight, with respect to the total weight of the dispersion and applied on a surface of 2 square meters. […]
as §5, §6, §7, §8
(§14) Nrs. 4 and 2 compared with a dispersion containing the Compound CR1 described in EP0297378 instead of the compound having general formula (I): […]

[5] = system: Amaranthus retroflexus; assay: Herbicidal activity in pre-emergence; conditions: dose of 250 g/ha, twenty-one days after treatment, vs untreated control
Experimental: as §10, §11, §3, §12, §13, §5, §6, §7, §8, §14

[6] = system: Lolium rigidum; assay: Herbicidal activity in pre-emergence; conditions: dose of 250 g/ha, twenty-one days after treatment, vs untreated control
Experimental: as §10, §11, §3, §12, §13, §5, §6, §7, §8, §14

[7] = system: Abutilon theophrasti; assay: Herbicidal activity in pre-emergence; conditions: dose of 250 g/ha, twenty-one days after treatment, vs untreated control
Experimental: as §10, §11, §3, §12, §13, §5, §6, §7, §8, §14

[8] = system: Solanum nigra; assay: Herbicidal activity in pre-emergence; conditions: dose of 250 g/ha, twenty-one days after treatment, vs untreated control
Experimental: as §10, §11, §3, §12, §13, §5, §6, §7, §8, §14

Compound	Herbicidal activity in post-emergence (percentage of damage, scale 0-100%) [1]	Herbicidal activity in post-emergence (percentage of damage, scale 0-100%) [2]	Herbicidal activity in post-emergence (percentage of damage, scale 0-100%) [3]	Herbicidal activity in pre-emergence (percentage of damage, scale 0-100%) [4]	Herbicidal activity in pre-emergence (percentage of damage, scale 0-100%) [5]	Herbicidal activity in pre-emergence (percentage of damage, scale 0-100%) [6]	Herbicidal activity in pre-emergence (percentage of damage, scale 0-100%) [7]	Herbicidal activity in pre-emergence (percentage of damage, scale 0-100%) [8]
1-(5-tert-butyl-1,3,4-thiadiazol-2-yl)-3,4-dimethyl-2-methoxyethylcarbonate-2H-pyrrol-2-yl-5-one [Compound 3]	90%	90%	95%	–	–	–	–	–
CC1=C(C)C(O)N(c2cc(C(C)(C)C)on2)C1=O (stereo not drawn) [CR1, 1-(5-tert-butylisoxazol-3-yl)-2-hydroxy-3,4-dimethyl-2H-pyrrol-5-one, reference compound]	40%	40%	85%	79%	60%	80%	90%	90%
COCC(=O)OC1C(C)=C(C)C(=O)N1c1nnc(C(C)(C)C)s1 (stereo not drawn) [Compound 2, 1-(5-tert-butyl-1,3,4-thiadiazol-2-yl)-3,4-dimethyl-2-methoxyacetate-2H-pyrrol-5-one]	90%	100%	100%	100%	92%	100%	95%	95%
CC1=C(C)C(OC(=O)C2CC2)N(c2cc(C(C)(C)C)on2)C1=O (stereo not drawn) [Compound 4, 1-(5-tert-butylisoxazole-3-yl)-2-cyclo-propanecarbonyloxy-3,4-dimethyl-2H-pyrrol-5-one]	100%	100%	100%	100%	80%	90%	100%	100%
